In US9701650B2, “Derivatives of sobetirome” (OREGON HEALTH & SCIENCE UNIVERSITY, priority 2015, dated 2017):
Values belong to the molecule of their own block, whether it stands above or below them.

Columns and labels:
[1] = single time point biodistribution study in mice (brain, liver, serum sobetirome 30 minutes after ip administration, LC-MS/MS); assay type: in vivo; settings: for brain sobetirome levels compared to equimolar systemic injection of sobetirome / liver sobetirome levels compared to direct sobetirome injection / serum sobetirome levels compared to direct sobetirome injection: sobetirome measured; for CNS distribution of sobetirome (in words): ip administration of prodrug, versus sobetirome
Method: A biodistribution study in mice was performed on each prodrug to determine the brain, liver, and serum levels of sobetirome following a systemic (intraperitoneal) administration. The mice received an equimolar dose (1.5 μmol/kg) of prodrug and one cohort received the same dose of sobetirome as a control. Tissue and blood were collected 30 minutes post-injection and the concentration of sobetirome was determined using an LC-MS/MS. […] The brain/liver sobetirome ratio was increased compared to sobetirome injection by 5- and 10-fold for 11 and 15, respectively (FIG. 1C)
(§1) Animal Studies: Experimental protocols were in compliance with the National Institutes of Health Guide for the Care and Use of Laboratory Animals and approved by the Oregon Health & Science University Institutional Animal Care & Use Committee. Wild type male C57Bl/6 mice, aged 8-10 weeks, were housed in a climate controlled room with a 12 hour light-dark cycle with ad libitum access to food and water. Mice were injected once intraperitoneally (IP) with sobetirome and prodrugs at 3.05 μmol/kg. Euthanasia was performed on three mice per time points at the following times (0.15 h, 0.5 h, 1 h, 2 h, 4 h, and 8 h) and the tissues and blood were harvested. Tissues were immediately frozen and blood was kept on ice for a minimum of 30 minutes and then spun down at 7,500×G for 15 minutes. Serum (100 uL) was collected and was stored with tissues at −80° C. until samples were processed.
(§2) Serum Processing: The serum samples were warmed to room temperature and 10 μL of 2.99 μM internal standard (D6-Sobetirome) was added to them. Acetonitrile (500 μL) was added and the sample was vortexed for 20 seconds. The sample was then centrifuged at 10,000×G for 15 minutes at 4° C. Next, 90% of the upper supernatant was transferred to a glass test tube and concentrated using a speedvac for 1.5 hours at 45° C. The dried sample was then dissolved in 400 μL of 50:50 ACN:H2O and vortexed for 20 seconds. The resulting mixture was transferred to an Eppendorf and centrifuged at 10,000×G for 15 minutes. The supernatant was filtered with 0.22 μM centrifugal filters and submitted for LC-MS/MS analysis. The standard curve was made with 100 μL of serum from an 8-10 week old mouse not injected with Sobetirome or prodrug. The processing was performed exactly the same except after filtering the sample was split amongst 6 vials. To 5 out of the 6 vials was added Sobetirome to make final concentrations in matrix of (0.1 pg/μL, 1 pg/μL, 10 pg/μL, 100 pg/μL, and 1000 pg/μL).
(§3) Brain Processing: The brain samples were warmed to room temperature and transferred to a homogenizer tube with 5 GoldSpec ⅛ chrome steel balls (Applied Industrial Technologies). The resulting tube was weighed and then 1 mL of H2O was added, followed by 10 μL of 2.99 μM internal standard (D6-sobetirome). The tube was homogenized with a Bead Bug® for 30 seconds and then transferred to a Falcon tube containing 3 mL of ACN. ACN (1 mL) was used to wash homogenizer tube and the solution was transferred back to the Falcon tube. The sample was then processed using the same method for the serum processing except the sample was concentrated in a glass tube using a speedvac for 4 hours at 45° C.
(§4) Liver Processing: The liver samples were warmed to room temperature and transferred to a homogenizer tube with 5 GoldSpec ⅛ chrome steel balls (Applied Industrial Technologies). The resulting tube was weighed and then 1 mL of H2O was added, followed by 10 μL of 2.99 μM internal standard (D6-Sobetirome). The tube was then homogenized with a Bead Bug for 30 seconds. A small sample (100 μL) was then taken from the homogenized mixture and processed. This was done because the liver levels found in some samples were too high for the LC-MS/MS instrument. The samples were then processed using the serum processing method.

[2] = 8-hour time course distribution study in mice (sobetirome in brain, liver, serum after ip administration); assay type: in vivo; settings: for AUC0-->t of sobetirome: ip 1.5 μmol/kg, 8 hour time course
Text: (§5) The single time point pilot study was followed up for 11 and 15 vs. sobetirome with an 8-hour time course distribution study in mice. […] The sobetirome AUC, Cmax, and Tmax values in brain, liver and serum resulting from systemic administration of sobetirome, prodrug 11, and prodrug 15 are shown in Table 1 and the curves used to obtain these values are shown in FIGS. 2A, 2B and 2C.
as §1, with “Mice were injected once intraperitoneally (IP) with sobetirome and prodrugs at 3.05 μmol/kg.” left out
as §2, §3, §4

[3] = pharmacokinetic study of sobetirome in mice (t1/2); settings: mouse, in vivo
Text: as §5

[4] = ip 1.5 μmol/kg, 30 minutes post-injection
[5] = male, C57Bl/6, mouse, in vivo, ip

Structure (SMILES): Cc1cc(OCC(=O)OCCN)cc(C)c1Cc1ccc(O)c(C(C)C)c1.Cl [Compound 11, GC1-ethanolamine]
brain sobetirome levels compared to equimolar systemic injection of sobetirome [1, 4]: significant brain sobetirome level increases | liver sobetirome levels compared to direct sobetirome injection [1, 4]: significantly lower | serum sobetirome levels compared to direct sobetirome injection [1, 4]: significantly lower | CNS distribution of sobetirome (in words) [1]: improved CNS distribution | sobetirome exposure in brain compared to direct sobetirome injection ([2]; mice, full time course): increased sobetirome exposure | sobetirome exposure in liver compared to direct sobetirome injection ([2]; mice, full time course): decreased sobetirome exposure | sobetirome exposure in serum compared to direct sobetirome injection ([2]; mice, full time course): decreased sobetirome exposure

half-life [3]: 1.5 h | AUC0-->t of sobetirome ([2]; mouse brain): 10.8 ng·h/g | AUC0-->t of sobetirome ([2]; mouse liver): 293 ng·h/g | AUC0-->t of sobetirome ([2]; mouse serum): 68.2 ng·h/g
Structure (SMILES): Cc1cc(OCC(=O)O)cc(C)c1Cc1ccc(O)c(C(C)C)c1 [Sobetirome]

liver sobetirome levels compared to direct sobetirome injection [1, 4]: significantly lower | serum sobetirome levels compared to direct sobetirome injection [1, 4]: significantly lower | CNS distribution of sobetirome (in words) [1]: improved CNS distribution | Sobetirome Distribution AUCbrain/AUCliver [2, 5]: 0.20 | Sobetirome Distribution AUCbrain/AUCserum [2, 5]: 1.3 | brain/serum ratio of sobetirome based on AUC [2, 5]: 1.31 | sobetirome exposure in brain compared to direct sobetirome injection ([2]; mouse, in vivo): increased sobetirome exposure | sobetirome exposure in liver compared to direct sobetirome injection ([2]; mouse, in vivo): decreased sobetirome exposure | sobetirome exposure in serum compared to direct sobetirome injection ([2]; mouse, in vivo): decreased sobetirome exposure | CNS distribution properties compared to 11 ([2]; mouse, in vivo, ip): superior CNS distribution properties | increase in sobetirome AUC(brain)/AUC(liver) relative to sobetirome ([2]; mouse, in vivo, ip): five-fold increase | time to reach Cmax ([2]; mouse, in vivo, ip): 1 h
Structure (SMILES): Cc1cc(OCC(=O)OC2CNC2)cc(C)c1Cc1ccc(O)c(C(C)C)c1 [Compound 15, azetidin-3-yl 2-(4-{[4-hydroxy-3-(propan-2-yl)phenyl]methyl}-3,5-dimethylphenoxy)acetate]
brain sobetirome levels compared to equimolar systemic injection of sobetirome [1, 4]: significant brain sobetirome level increases

brain/serum ratio of sobetirome (in words) [1, 4]: did not significantly increase | brain sobetirome levels compared to equimolar systemic injection of sobetirome [1, 4]: did not significantly increase
Structure (SMILES): Cc1cc(OCC(=O)OCCN2CCOCC2)cc(C)c1Cc1ccc(O)c(C(C)C)c1 [Compound 9, 2-(morpholin-4-yl)ethyl 2-(4-{[4-hydroxy-3-(propan-2-yl)phenyl]methyl}-3,5-dimethylphenoxy)acetate]

Structure (SMILES): Cc1cc(OCC(=O)OCC[N+](C)(C)C)cc(C)c1Cc1ccc(O)c(C(C)C)c1.[Br-] [Compound 8, 2-(trimethylamino)ethyl 2-(4-{[4-hydroxy-3-(propan-2-yl)phenyl]methyl}-3,5-dimethylphenoxy)acetate hydrobromide]
CNS distribution of sobetirome (in words) [1]: did not improve CNS distribution of sobetirome
